Reference: patent US7928107B2, “Quinazolines useful as modulators of ion channels” (Vertex Pharmaceuticals Incorporated, priority 2004, dated 2011)

Target: NaV 1.8 channel (Homo sapiens, UniProt Q9Y5Y9)
Experiment: Activity against NaV 1.8 channel (optical membrane potential assay)
Format: cell-based
How it was run: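 Cells expressing the NaV of interest loaded with CC2-DMPE (30 min, room temperature) then DiSBAC2(3) with ABSCl and veratridine; compound incubated 20–30 min. Depolarization triggered by sodium add-back and read on VIPR as 460/580 nm FRET ratio (Rf/Ri), normalized to tetracaine and untreated controls.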

Sequence of NaV 1.8 channel (Q9Y5Y9 whole entry): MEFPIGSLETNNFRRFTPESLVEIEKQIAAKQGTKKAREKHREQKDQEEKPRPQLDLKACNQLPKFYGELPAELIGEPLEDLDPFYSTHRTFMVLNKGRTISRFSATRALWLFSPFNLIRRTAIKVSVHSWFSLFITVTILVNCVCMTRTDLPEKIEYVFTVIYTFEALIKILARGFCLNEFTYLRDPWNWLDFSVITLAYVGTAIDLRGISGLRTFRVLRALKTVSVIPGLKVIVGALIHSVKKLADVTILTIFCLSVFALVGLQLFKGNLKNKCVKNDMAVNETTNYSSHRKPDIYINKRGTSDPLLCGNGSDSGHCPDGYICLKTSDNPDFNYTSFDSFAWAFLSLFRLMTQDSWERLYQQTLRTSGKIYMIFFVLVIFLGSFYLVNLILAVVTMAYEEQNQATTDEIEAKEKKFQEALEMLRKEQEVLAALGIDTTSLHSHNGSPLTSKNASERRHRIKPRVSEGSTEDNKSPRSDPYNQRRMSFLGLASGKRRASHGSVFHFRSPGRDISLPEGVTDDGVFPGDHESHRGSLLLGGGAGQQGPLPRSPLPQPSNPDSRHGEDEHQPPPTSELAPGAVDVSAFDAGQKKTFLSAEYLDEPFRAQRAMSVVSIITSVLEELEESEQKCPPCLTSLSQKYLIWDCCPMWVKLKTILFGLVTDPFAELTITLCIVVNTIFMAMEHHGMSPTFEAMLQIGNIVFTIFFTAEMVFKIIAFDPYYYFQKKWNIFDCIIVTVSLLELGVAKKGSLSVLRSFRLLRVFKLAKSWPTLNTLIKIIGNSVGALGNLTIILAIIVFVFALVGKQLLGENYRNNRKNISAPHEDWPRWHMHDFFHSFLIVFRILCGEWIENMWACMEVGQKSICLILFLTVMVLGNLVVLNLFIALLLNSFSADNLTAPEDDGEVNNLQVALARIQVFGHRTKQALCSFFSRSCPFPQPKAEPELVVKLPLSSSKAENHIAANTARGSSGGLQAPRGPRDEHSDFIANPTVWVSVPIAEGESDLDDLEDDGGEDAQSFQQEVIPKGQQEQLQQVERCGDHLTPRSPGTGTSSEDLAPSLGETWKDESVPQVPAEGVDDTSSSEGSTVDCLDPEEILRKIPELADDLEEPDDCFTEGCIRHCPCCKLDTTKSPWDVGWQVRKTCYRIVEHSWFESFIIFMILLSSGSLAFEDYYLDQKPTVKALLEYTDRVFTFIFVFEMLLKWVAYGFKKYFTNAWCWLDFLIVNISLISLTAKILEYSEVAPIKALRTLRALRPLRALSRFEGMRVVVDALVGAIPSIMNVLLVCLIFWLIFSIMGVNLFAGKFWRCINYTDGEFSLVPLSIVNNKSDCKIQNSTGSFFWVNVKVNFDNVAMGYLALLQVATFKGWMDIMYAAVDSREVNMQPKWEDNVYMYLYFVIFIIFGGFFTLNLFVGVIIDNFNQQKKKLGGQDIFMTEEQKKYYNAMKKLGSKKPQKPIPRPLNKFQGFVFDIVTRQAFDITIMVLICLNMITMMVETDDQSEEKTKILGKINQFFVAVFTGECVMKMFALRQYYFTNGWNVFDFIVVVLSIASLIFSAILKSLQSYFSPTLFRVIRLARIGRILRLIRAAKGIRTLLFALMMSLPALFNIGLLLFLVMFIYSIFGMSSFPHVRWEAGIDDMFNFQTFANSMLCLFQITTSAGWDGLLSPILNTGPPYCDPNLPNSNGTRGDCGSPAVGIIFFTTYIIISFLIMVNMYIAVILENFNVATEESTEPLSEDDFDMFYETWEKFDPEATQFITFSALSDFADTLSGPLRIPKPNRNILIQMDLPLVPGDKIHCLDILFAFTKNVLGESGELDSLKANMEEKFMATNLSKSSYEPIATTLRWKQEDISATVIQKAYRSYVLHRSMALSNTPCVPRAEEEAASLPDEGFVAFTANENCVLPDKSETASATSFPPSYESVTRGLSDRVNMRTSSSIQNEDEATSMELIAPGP

IC50 [µM] | Compound
> 10 | Cc1ccc2c(N3CC[C@@H](NC(=O)c4cccnc4)C3)nc(-c3ccccc3O)nc2c1 [Example 328, N—((R)-1-(2-(2-Hydroxyphenyl)-7-methylquinazolin-4-yl)pyrrolidin-3-yl)nicotinamide]
2 to 10 | O=C(N[C@@H]1CCN(c2nc(-c3ccccc3O)nc3ccc(F)cc23)C1)C1CC1 [Example 329, N—((R)-1-(6-Fluoro-2-(2-hydroxyphenyl)quinazolin-4-yl)pyrrolidin-3-yl)cyclopropanecarboxamide]
2 to 10 | O=C(N[C@@H]1CCN(c2nc(-c3ccccc3O)nc3ccc(F)cc23)C1)O[C@H]1CCOC1 [Example 335, (S)-Tetrahydrofuran-3-yl (R)-1-(6-fluoro-2-(2-hydroxyphenyl)quinazolin-4-yl)pyrrolidin-3-ylcarbamate]
2 to 10 | O=C(N[C@@H]1CCN(c2nc(-c3ccccc3O)nc3ccc(F)cc23)C1)O[C@@H]1CCOC1 [Example 337, (R)-Tetrahydrofuran-3-yl (R)-1-(6-fluoro-2-(2-hydroxyphenyl)quinazolin-4-yl)pyrrolidin-3-ylcarbamate]
> 10 | O=C(CC1CCOCC1)N[C@@H]1CCN(c2nc(-c3ccccc3O)nc3ccc(F)cc23)C1 [Example 338, N—((R)-1-(6-Fluoro-2-(2-hydroxyphenyl)quinazolin-4-yl)pyrrolidin-3-yl)-2-(tetrahydro-2H-pyran-4-yl)acetamide]
2 to 10 | O=C(N[C@@H]1CCN(c2nc(-c3ccccc3O)nc3ccc(F)cc23)C1)OCC1CCCCO1 (stereo partly drawn) [Example 339, (Tetrahydro-2H-pyran-2-yl)methyl (R)-1-(6-fluoro-2-(2-hydroxyphenyl)quinazolin-4-yl)pyrrolidin-3-ylcarbamate]
> 10 | Cc1ccc2c(N3CC[C@@H](NC(=O)c4cccc(N(C)C)c4)C3)nc(-c3ccccc3O)nc2c1 [Example 342, 3-(Dimethylamino)-N—((R)-1-(2-(2-hydroxyphenyl)-7-methylquinazolin-4-yl)pyrrolidin-3-yl)benzamide]
2 to 10 | Cc1ccc2c(N3CC[C@@H](NC(=O)O[C@H]4CCOC4)C3)nc(-c3c(O)cccc3F)nc2c1 [Example 345, (S)-Tetrahydrofuran-3-yl (R)-1-(2-(2-fluoro-6-hydroxyphenyl)-7-methylquinazolin-4-yl)pyrrolidin-3-ylcarbamate]
2 to 10 | Cc1ccc2c(N3CC[C@@H](NC(=O)C4CC4)C3)nc(-c3c(O)cccc3F)nc2c1 [Example 346, N—((R)-1-(2-(2-Fluoro-6-hydroxyphenyl)-7-methylquinazolin-4-yl)pyrrolidin-3-yl)cyclopropanecarboxamide]
> 10 | O=C(N[C@@H]1CCN(c2nc(-c3ccccc3O)nc3ccc(F)cc23)C1)c1ccncc1 [Example 347, N—((R)-1-(6-Fluoro-2-(2-hydroxyphenyl)quinazolin-4-yl)pyrrolidin-3-yl)isonicotinamide]
> 10 | O=C(N[C@@H]1CCN(c2nc(-c3ccccc3O)nc3ccc(F)cc23)C1)c1ccccn1 [Example 348, N—((R)-1-(6-Fluoro-2-(2-hydroxyphenyl)quinazolin-4-yl)pyrrolidin-3-yl)picolinamide]
> 10 | O=C(N[C@@H]1CCN(c2nc(-c3ccccc3O)nc3ccc(F)cc23)C1)c1cccnc1 [Example 349, N—((R)-1-(6-Fluoro-2-(2-hydroxyphenyl)quinazolin-4-yl)pyrrolidin-3-yl)nicotinamide]
> 10 | Cc1ccc2c(N3CC[C@@H](NC(=O)c4ccncc4)C3)nc(-c3c(O)cccc3F)nc2c1 [Example 350, N—((R)-1-(2-(2-Fluoro-6-hydroxyphenyl)-7-methylquinazolin-4-yl)pyrrolidin-3-yl)isonicotinamide]
2 to 10 | Cc1ccc2c(N3CC[C@@H](NC(=O)c4ccccn4)C3)nc(-c3c(O)cccc3F)nc2c1 [Example 351, N—((R)-1-(2-(2-Fluoro-6-hydroxyphenyl)-7-methylquinazolin-4-yl)pyrrolidin-3-yl)picolinamide]
> 10 | Cc1ccc2c(N3CC[C@@H](NC(=O)c4cccnc4)C3)nc(-c3c(O)cccc3F)nc2c1 [Example 352, N—((R)-1-(2-(2-Fluoro-6-hydroxyphenyl)-7-methylquinazolin-4-yl)pyrrolidin-3-yl)nicotinamide]
> 10 | Cc1ccc2c(N3CC[C@@H](NC(=O)c4ccncc4)C3)nc(-c3ccccc3O)nc2c1 [Example 353, N—((R)-1-(2-(2-Hydroxyphenyl)-7-methylquinazolin-4-yl)pyrrolidin-3-yl)isonicotinamide]
2 to 10 | Cc1ccc2c(N3CC[C@@H](NC(=O)c4ccccn4)C3)nc(-c3ccccc3O)nc2c1 [Example 354, N—((R)-1-(2-(2-Hydroxyphenyl)-7-methylquinazolin-4-yl)pyrrolidin-3-yl)picolinamide]
> 10 | O=C(NC[C@@H]1CCN(c2nc(-c3ccccc3O)nc3ccc(F)cc23)C1)O[C@@H]1CCOC1 [Example 355, (R)-Tetrahydrofuran-3-yl ((S)-1-(6-fluoro-2-(2-hydroxyphenyl)quinazolin-4-yl)pyrrolidin-3-yl)methylcarbamate]
> 10 | O=C(NC[C@@H]1CCN(c2nc(-c3ccccc3O)nc3ccc(F)cc23)C1)O[C@H]1CCOC1 [Example 356, (S)-Tetrahydrofuran-3-yl ((S)-1-(6-fluoro-2-(2-hydroxyphenyl)quinazolin-4-yl)pyrrolidin-3-yl)methylcarbamate]
> 10 | O=C(NC[C@@H]1CCN(c2nc(-c3ccccc3O)nc3ccc(F)cc23)C1)C1CC1 [Example 357, N—(((S)-1-(6-Fluoro-2-(2-hydroxyphenyl)quinazolin-4-yl)pyrrolidin-3-yl)methyl)cyclopropanecarboxamide]
> 10 | O=C(N[C@@H]1CCN(c2nc(-c3ccccc3O)nc3ccc(F)cc23)C1)C(O)c1ccc(F)cc1 (stereo partly drawn) [Example 358, N—((R)-1-(6-Fluoro-2-(2-hydroxyphenyl)quinazolin-4-yl)pyrrolidin-3-yl)-2-(4-fluorophenyl)-2-hydroxyacetamide]
> 10 | Cc1ccc2c(N3CC[C@@H](NC(=O)C(O)c4ccc(F)cc4)C3)nc(-c3c(O)cccc3F)nc2c1 (stereo partly drawn) [Example 359, N—((R)-1-(2-(2-Fluoro-6-hydroxyphenyl)-7-methylquinazolin-4-yl)pyrrolidin-3-yl)-2-(4-fluorophenyl)-2-hydroxyacetamide]
> 10 | Cc1ccc2c(N3CC[C@@H](NC(=O)C(O)c4ccc(F)cc4)C3)nc(-c3ccccc3O)nc2c1 (stereo partly drawn) [Example 360, 2-(4-Fluorophenyl)-2-hydroxy-N—((R)-1-(2-(2-hydroxyphenyl)-7-methylquinazolin-4-yl)pyrrolidin-3-yl)acetamide]
2 to 10 | Cc1ccc2c(N3CC[C@@H](NC(=O)[C@H](O)CC(C)(C)C)C3)nc(-c3ccccc3O)nc2c1 [Example 361, (2R)-2-Hydroxy-N—((R)-1-(2-(2-Hydroxyphenyl)-7-methylquinazolin-4-yl)pyrrolidin-3-yl)-4,4-dimethylpentanamide]

Compound | IC50 [µM]
Cc1ccc2c(N3CC[C@@H](NC(=O)C4C(C)(C)C4(C)C)C3)nc(-c3ccccc3O)nc2c1 [Example 340, N—((R)-1-(2-(2-Hydroxyphenyl)-7-methylquinazolin-4-yl)pyrrolidin-3-yl)-2,2,3,3-tetramethylcyclopropanecarboxamide] | < 2
